In US10835500B2, “Medicament for accelerated wound healing” (Symrise AG, priority 2014, dated 2020):

What was measured:
[1] = target: T1, recombinantly expressed OR2AT4 (Homo sapiens, UniProt A6NND4); experiment: Calcium imaging of transiently OR2AT4-transfected Hana3A cells; format: cell-based; conditions: 1 mM odorant, 20 s stimulation, OR2AT4-transfected Hana3A cells
T1 construct: expressed in transfected cells; host or cells: Hana3A cells, transient transfection with pcDNA3-OR2AT4 by the calcium phosphate method
T1 sequence (A6NND4 1-320): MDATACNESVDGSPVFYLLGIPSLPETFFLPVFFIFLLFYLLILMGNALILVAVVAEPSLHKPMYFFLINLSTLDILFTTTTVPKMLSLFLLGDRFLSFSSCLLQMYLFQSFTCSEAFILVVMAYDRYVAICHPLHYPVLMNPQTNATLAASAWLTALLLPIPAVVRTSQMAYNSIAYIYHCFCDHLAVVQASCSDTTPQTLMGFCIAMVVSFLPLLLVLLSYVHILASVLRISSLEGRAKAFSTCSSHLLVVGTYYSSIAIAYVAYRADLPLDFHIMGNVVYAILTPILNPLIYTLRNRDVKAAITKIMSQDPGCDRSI
Protocol: Hana3A cells expressing stable endogenous olfactory transduction factors, which specifically target the incorporation of ORs into the cell membrane and thus improve activation capacity, were used as a heterologous expression system. Moreover, the 20 first N-terminal amino acids of rhodopsins (Rho-tag) were added before the N-terminus of the coding sequence of the OR, also in order to support heterologous expression.
A method established at the Department of Cell Physiology of Ruhr University Bochum for deorphanization studies is calcium imaging, in which activation of an OR by an odorant is visualized by a change in the intracellular calcium concentration of transfected cells using a fluorescent dye [cf. Wetzel et al. in: J. Neurosci. 19, pp. 7426-7433 (1999); Spehr et al. in: Science 299, pp. 2054-2058 (2003); Neuhaus et al. in: J. Biol. Chem. 284, pp. 16218-16225 (2009)]. In this method, the Hana3A cells are briefly (20 s) stimulated with an odorant and selected for odorant screenings of high concentrations (up to 1 mM) in order to confirm activation of ORs weakly expressed in Hana3A cells.
The activation of OR2AT4 by Sandalore® was first investigated by the calcium imaging method.
Odorants can not only activate a receptor, but can also act as antagonists to an OR.
(§1) Determination of receptive field of recombinantly expressed OR2AT4. […] As a control, untransfected Hana3A cells were simulated with Sandalore®. 100 μM of ATP was used at the end of each measurement as a positive control stimulus. […] The mean response rate including standard error of the cells is shown relative to the Ringer control. […] Isobornyl.: isobornyl cyclohexanol; S. öl: sandalwood oil. Kruskal-Wallis test with multiple comparison. *: p<0.05. […] Significance was determined between Hana3A cells transfected with OR2AT4-pcDNA3 and pcDNA3 without an insert. The dots show mean normalized luciferase-activity including standard error. Mann-Whitney U test; n=3 experiments. *: p<0.05; **: p<0.01; ***: p<0.001.
Antagonists of recombinantly expressed OR2AT4. […] 100 μM of ATP was used at the end of each measurement as a positive control stimulus. […] The mean response rate including standard error of the cells is shown relative to the Ringer control. Number of measurements: Ringer (23), Sandalore® (22), Sandalore®+dimetol (11), dimetol (11), Phenirat (14), Sandalore®+Phenirat (22), Oxyphenylon (12), and Sandalore®+Oxyphenylon (20). S: Sandalore®. Kruskal-Wallis test with multiple comparison. *: p<0.05.

[2] = target: T1, recombinantly expressed OR2AT4; experiment: CRE dual luciferase assay in OR2AT4-transfected Hana3A cells; format: cell-based; conditions: for activation of OR2AT4 in the luciferase assay: up to the highest useable concentrations 10-25 μM
From the text: In order to verify calcium imaging results and investigate dose-dependent activation of OR2AT4, a further method of deorphanization based on a dual luciferase system was used. In this method, in addition to the OR, two luciferases were introduced into the Hana3A cells. When the expressed OR is activated by an odorant and cAMP is formed in the further course of the signal cascade, this initiates expression of firefly luciferase via CRE (cAMP response elements). The second luciferase, Renilla luciferase, serves as a control for transfection and vitality of the cells. By calculating the two luciferase values, the activation capacity of an OR by an odorant can be determined. In the CRE luciferase assay, the odorant remains on the cells for hours in order to ensure that the luciferase is expressed. Because of the longer incubation time of the odorants and the possibility of activating more receptors in a 96-well format, this method is more sensitive than calcium imaging and is well-suited for establishing dose-response relationships.
For Brahmanol, however, a higher concentration (≥75 μM) was required than for Sandalore® (≥25 μM) in order to produce a significant effect at the receptor (FIG. 3c).
as §1

[3] = test system: ERK1/2 MAPK; experiment: Western Blot, phosphorylation of ERK1/2 MAPK in HaCaT cells; format: cell-based, human; conditions: inhibitor 10 μM, Sandalore 500 μM
Protocol: (§2) In the following, an investigation was to be conducted to determine whether a MAPK signalling pathway is activated by Sandalore® stimulation in skin cells, and if so, which pathway is involved. For detection, HaCaT cells were stimulated for 0-30 min with 500 μM of Sandalore®, and the proteins were then isolated and used in Western Blot assays.
In order to reveal a possible interaction of the two MAPK signalling pathways, ERK1/2 phosphorylation in the presence of the p38 MAPK inhibitor SB203580 and p38 MAPK phosphorylation in the presence of the ERK1/2 MAPK inhibitor U0126 were investigated. Phosphorylation was increased for both kinases in the presence of the respective inhibitors compared to the cells stimulated with Sandalore® only. This effect was significant for p38 MAPK (FIG. 17c).
(§3) Effect of Sandalore® stimulation on phosphorylation of MAP kinases in skin cells. A) Western Blot for investigating the phosphorylation of the MAP kinases in HaCaT cells stimulated for 0, 5, 15 and 30 min with Sandalore®(500 μM). In order to confirm uniform protein volume, ▪-tubulin was used as a control. ERK1/2: 42/44 kDa; p38: 43 kDa; JNK/SAPK: 46/54 kDA; ▪-tubulin: 52 kDa. B) Quantitative evaluation of p38 and ERK1/2 phosphorylation of HaCaT cells stimulated for 30 min with Sandalore®(500 μM) or additionally with the p38 inhibitor 5B203580 (10 μM) or ERK1/2 inhibitor U0126 (10 μM). For evaluation, the ratio of the phosphorylated (p) and unphosphorylated proteins was established and compared to that of untreated cells. Mean values including standard error. Mann-Whitney U test. *: p<0.05; ***: p<0.001. In C), the inhibitors of the respective other MAP kinase were used, and phosphorylation was compared to the cells stimulated with Sandalore® (500 μM) alone. Mean values including standard error. Mann-Whitney U test. *: p<0.05. The Western Blot analyses were carried out with three different protein isolations.

[4] = test system: p38 MAPK; experiment: Western Blot, phosphorylation of p38 MAPK in HaCaT cells; format: cell-based, human; conditions: inhibitor 10 μM, Sandalore 500 μM
Protocol: as §2
In order to reveal a possible interaction of the two MAPK signalling pathways, ERK1/2 phosphorylation in the presence of the p38 MAPK inhibitor SB203580 and p38 MAPK phosphorylation in the presence of the ERK1/2 MAPK inhibitor U0126 were investigated.
as §3, with “A)” for “Effect of Sandalore® stimulation on phosphorylation of MAP kinases in skin cells. A)”, “In order to confirm uniform protein volume, ▪-tubulin was used as a control.” left out

[5] = test system: HaCaT cells; experiment: In vitro wound scratch assay, HaCaT cells; format: cell-based, human; conditions: HaCaT; for Sandalore-increased wound healing on coincubation: 48 hours, Sandalore 500 μM + antagonist 500 μM or inhibitor 10 μM; for effect of the substance alone on wound healing: antagonist 500 μM or inhibitor 10 μM alone
From the text: The MAP kinases p38 and ERK1/2 are often associated with increased proliferation and migration in epidermal wound healing. For this reason, in a further physiological experiment, the effect of Sandalore® on “wound healing” of a confluent cell layer of HaCaT cells or primary keratinocytes was investigated. For this purpose, the wound scratch assay was used, which is an established in vitro method for initial investigations of wound healing processes in keratinocytes.
In order to investigate the role of the OR2AT4 receptor in this effect, a test was conducted to determine whether the two antagonists Oxyphenylon and Phenirat could again reduce the “wound healing” increased by Sandalore®. For this purpose, Sandalore® was mixed with one of the antagonists each in the same ratio, and the effect on “wound healing” of the HaCaT cells was again observed for 48 hours. […] The two antagonists alone had no effect on the “wound healing” (FIG. 18d). The role of the MAP kinases p38 and ERK1/2 was investigated by means of specific inhibitors of the kinases. For p38 MAPK, the […] SB203580 was used, and for ERK1/2 MAPK, the […] U0126 was used. […] The two inhibitors alone had no effect on the wound healing (FIG. 18d).
Effect of Sandalore® stimulation on human keratinocytes in an in vitro “wound healing” assay. Investigation of the “wound healing rate” of A) primary keratinocytes and B) HaCaT cells by means of a wound scratch assay in the presence of Sandalore® (500 μM) or 0.1% DMSO as a control. Left: Transmitted light images of the “wound” observed at various times. The growth margin of the cells was surrounded in black. Scale: 200 μm. Right: Quantitative evaluation of the wound scratch assay. The areas of the wounds were measured and compared to the initial wound (0 h). Mean values including standard error. Mann-Whitney U test; n=4 experiments. *: p<0.05; ***: p<0.001. C) Wound scratch assay in the presence of Sandalore® (500 μM) and one of the antagonists Oxyphenylon (500 μM) or Phenirat (500 μM) respectively, the p38 MAPK inhibitor 5B203580 (10 μM), or the ERK1/2 MAPK inhibitor U0126 (10 μM). The measured wound areas of the treated cells (after 48-hour stimulation) were compared to the control (0.1% DMSO). Mean values including standard error. Kruskal-Wallis test with multiple comparison; n=3 experiments. *: p<0.05. D) Controls for the wound scratch assay with Oxyphenylon (500 μM), Phenirat (500 μM), 5B203580 (10 μM), or U0126 (10 μM) carried out under C). The measured wound areas of the treated cells were compared to the control (0.1% DMSO). Mean value included.

Molecule | response rate of the Hana3A cells relative to the Ringer control [1] | activation of OR2AT4 in the luciferase assay [2] | Sandalore-increased wound healing on coincubation [5] | effect of the substance alone on wound healing [5] | further results
CC1=CCC(C=CC(C)(C)C(C)O)C1(C)C (centres unmarked) [Polysantol] | only Brahmanol showed an increased response rate | no increased activation of OR2AT4 |  |  | 
C[S+]([O-])c1ccc(-c2nc(-c3ccncc3)c(-c3ccc(F)cc3)[nH]2)cc1 (centres unmarked) [SB203580] |  |  | again reduced to the normal level | no effect | ERK1/2 phosphorylation in the presence of the p38 MAPK inhibitor compared to Sandalore only [3]: increased; Sandalore-induced p38 MAPK phosphorylation with p38 inhibitor ([4]; 30 min): significantly reduced
CC/C(=C\CC1CC=C(C)C1(C)C)CO (centres unmarked) [Sandranol] | only Brahmanol showed an increased response rate |  |  |  | reaction in the CRE luciferase assay ([2]; at the investigated concentration (≥50 μM)): no reaction
N#CC(=C(/N)Sc1ccccc1N)/C(C#N)=C(\N)Sc1ccccc1N [U0126] |  |  | again reduced to the normal level | no effect | Sandalore-induced ERK1/2 MAPK phosphorylation with ERK1/2 inhibitor ([3]; 30 min): significantly reduced; increase of p38 MAPK phosphorylation in the presence of the ERK1/2 MAPK inhibitor compared to Sandalore only [4]: significant
isobornyl cyclohexanol | only Brahmanol showed an increased response rate | no increased activation of OR2AT4 |  |  | 
